In ChEMBL document CHEMBL1201862, “PubChem BioAssay data set” (2004):
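Step 1: Grow cells in 96-well plates. Step 2: Expose to compound for 48 hours at 5 concentrations. Step 3: Interpolate endpoints linearly; if unreached, use highest concentration. The concentration for 50% growth inhibition is given as GI50.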 Calls of active or inactive are those of the source. Cut-off read from the data, not from the text of the source: active = GI50 up to about 1.1 µM and inactive = higher.

What was measured:
Test in all cases: NCI tumour cell line growth inhibition, 48 h
MDA-N = test system: MDA-N
DLD-1 = test system: DLD-1
M19-MEL = test system: M19-MEL
SNB-78 = test system: SNB-78
HOP-18 = test system: HOP-18
KM-20L2 = test system: KM-20L2
XF498 = test system: XF498
LXFL 529 = test system: LXFL 529
RXF 631 = test system: RXF 631

Row | Compound | GI50 (MDA-N) | GI50 (DLD-1) | GI50 (M19-MEL) | further results
1 | Cc1ccc(S(=O)(=O)Nc2cc(O)nc3c2CCC3)cc1 | > 100 µM (inactive) | – | – | –
2 | Nc1cccc2nsnc12 | 49.8 µM (inactive) | – | – | –
3 | C1OC1C1CO1 (stereo not given) | – | > 100 µM (inactive) | 58.9 µM (inactive) | GI50 (SNB-78): 87.3 µM (inactive); GI50 (HOP-18): > 100 µM (inactive); GI50 (KM-20L2): 98.2 µM (inactive); GI50 (XF498): > 100 µM (inactive)
4 | COc1ccc(S(=O)(=O)N2C(=O)CCC2C(=O)NN)cc1 (stereo not given) | > 100 µM (inactive) | – | – | –
5 | Cc1nc2c(nc1C)C(=O)c1cc(O)ccc1C2=O | – | > 51.3 µM (inactive) | 8.13 µM (inactive) | GI50 (SNB-78): > 100 µM (inactive); GI50 (HOP-18): > 100 µM (inactive); GI50 (LXFL 529): > 100 µM (inactive); GI50 (KM-20L2): 57.4 µM (inactive)
6 | Cc1c(C#N)c(=O)[nH]c(=O)n1CCN1CCN(C(=O)NCCCCCCNC(=O)N2CCN(CCn3c(C)c(C#N)c(=O)[nH]c3=O)CC2)CC1 | – | > 100 µM (inactive) | > 100 µM (inactive) | GI50 (SNB-78): > 100 µM (inactive); GI50 (HOP-18): > 100 µM (inactive); GI50 (LXFL 529): > 100 µM (inactive); GI50 (KM-20L2): > 100 µM (inactive); GI50 (XF498): > 100 µM (inactive)
7 | N=C(N)NS(=O)(=O)c1ccc(NNc2c3ccccc3nc3c(C(=O)Nc4ccc(S(=O)(=O)Nc5ncccn5)cc4)cccc23)cc1 | 49.7 µM (inactive) | – | – | –
8 | CCCCNC(=S)Nn1c(-c2ccccc2)nc2ccccc2c1=O | – | > 100 µM (inactive) | 92.5 µM (inactive) | GI50 (HOP-18): > 100 µM (inactive); GI50 (LXFL 529): > 100 µM (inactive)
9 | CC1=C(C(=O)OCc2ccncc2)C(C2=C(C)SCCS2)C(C(=O)OCc2ccncc2)=C(C)N1 | 30.5 µM (inactive) | – | – | –
10 | N[C@H](C(=O)O)[C@@H](Cl)CC(=O)O | – | > 100 µM (inactive) | > 100 µM (inactive) | GI50 (SNB-78): > 100 µM (inactive); GI50 (HOP-18): > 100 µM (inactive); GI50 (LXFL 529): > 100 µM (inactive); GI50 (KM-20L2): > 100 µM (inactive); GI50 (XF498): > 100 µM (inactive)
11 | Cc1cc(C)c(S(=O)(=O)ONC(=O)OC(C)(C)C)c(C)c1 | – | > 100 µM (inactive) | > 100 µM (inactive) | GI50 (RXF 631): > 100 µM (inactive); GI50 (SNB-78): > 100 µM (inactive); GI50 (LXFL 529): > 100 µM (inactive); GI50 (XF498): > 100 µM (inactive)
12 | CCC(=O)N(O)C(C)(C)C | – | > 100 µM (inactive) | > 100 µM (inactive) | GI50 (SNB-78): > 100 µM (inactive); GI50 (LXFL 529): > 100 µM (inactive); GI50 (KM-20L2): > 100 µM (inactive)
13 | c1ccc(CSCCc2ccncc2)cc1 | > 100 µM (inactive) | – | – | –
14 | O=[N+]([O-])c1ccc2nc(/C(=N/Nc3ccccc3)C(O)c3ccco3)c(O)nc2c1 (stereo not given) | – | > 100 µM (inactive) | 73.5 µM (inactive) | GI50 (RXF 631): > 100 µM (inactive); GI50 (LXFL 529): 42.1 µM (inactive); GI50 (KM-20L2): 24.5 µM (inactive); GI50 (XF498): > 100 µM (inactive)
15 | COc1ccc(/C=C/C(=O)c2cc(C(C)(C)C)c(O)c(C(C)(C)C)c2)cc1OC | 2.94 µM (inactive) | – | – | –
16 | CN(C)C(=O)C(NCCO)c1ccccc1 (stereo not given) | > 100 µM (inactive) | – | – | –
17 | O=C1C(/N=N/c2ccc(-c3nc4ccccc4o3)cc2)NC(=S)N1c1ccccc1 (stereo not given) | 32.8 µM (inactive) | – | – | –
18 | CC[N+]1(C)CCC(O)(c2ccc(C)cc2)C(C(=O)c2ccc(C)cc2)C1 (stereo not given) | > 100 µM (inactive) | – | – | –

Row | Compound | GI50 (MDA-N) | GI50 (DLD-1) | GI50 (M19-MEL) | further results
19 | O=C(Nc1nnc(-c2c(Cl)c(Cl)c(Cl)c(Cl)c2-c2nc3cc(C(=O)c4ccccc4)ccc3[nH]2)o1)c1ccc(Cl)cc1 | 5.89 µM (inactive) | – | – | –
20 | COc1cc(C2c3cc4c(cc3OC(N3CCOCC3)C2C)OCO4)ccc1O (stereo not given) | 1.76 µM (inactive) | – | – | –
21 | CCN(C(C)=O)c1cnc(/C=N/NC(N)=S)c2ccccc12 | 7.01 µM (inactive) | – | – | –
22 | CC(C)(C)c1cc(C2NC(=O)NC2=O)cc(C(C)(C)C)c1O (stereo not given) | 47 µM (inactive) | – | – | –
23 | CCCCCCCCCCCCO[PH](=O)OCCCCCCCCCCCC | > 100 µM (inactive) | – | – | –
24 | COc1cccc2c1CCc1ccccc1CC2=O | – | > 100 µM (inactive) | > 100 µM (inactive) | GI50 (HOP-18): > 100 µM (inactive); GI50 (LXFL 529): > 100 µM (inactive); GI50 (KM-20L2): > 100 µM (inactive); GI50 (XF498): > 100 µM (inactive)
25 | CNNC1=NS(=O)(=O)c2cc(C#N)c(Cl)cc2S1 | > 10 µM (inactive) | – | – | –
26 | O=c1[nH]c(=O)n(C2CC(O)C(CO)O2)c2nc3ccc4ccccc4c3nc12 (stereo not given) | > 100 µM (inactive) | – | – | –
27 | CC(OC(C)(C)C)[C@H](NC(=O)OCc1ccccc1)C(=O)NC(OCc1ccccc1)[C@H]1COC(C)(C)O1 (stereo not given in full) | > 10 µM (inactive) | – | – | –
28 | CSC1=C(C(=O)Nc2ccccc2)C(N)=NC1=O | > 100 µM (inactive) | – | – | –
29 | N#C/C(=C/n1c(=S)[nH]c2ccccc21)C(N)=O | > 100 µM (inactive) | – | – | –
30 | NC(=O)C(=O)C1CCC2=C(Sc3ccccc3N2)C1=O (stereo not given) | – | > 100 µM (inactive) | > 100 µM (inactive) | GI50 (RXF 631): > 100 µM (inactive); GI50 (SNB-78): > 100 µM (inactive); GI50 (LXFL 529): > 100 µM (inactive); GI50 (KM-20L2): > 100 µM (inactive)
31 | O=C(O)C(SC1=NC(=O)C2(NN1)c1ccccc1-c1ccccc12)SC1=NC(=O)C2(NN1)c1ccccc1-c1ccccc12 | > 10 µM (inactive) | – | – | –
32 | O=C(/C=C/c1ccc(O)c(O)c1)NC(CO)C(=O)O (stereo not given) | > 100 µM (inactive) | – | – | –
33 | Cc1cn(C2CCC(CO)(CF)O2)c(=O)[nH]c1=O (stereo not given) | > 100 µM (inactive) | – | – | –
34 | CC(=O)c1cccc(NC(=O)C(=O)C(c2cnc3ccc([N+](=O)[O-])cc3n2)[N+](=O)[O-])c1 (stereo not given) | > 100 µM (inactive) | – | – | –
35 | CN(C)c1nc(N(C)C)n2nc(-c3ccccc3[N+](=O)[O-])nc2n1 | – | 48.5 µM (inactive) | > 100 µM (inactive) | GI50 (SNB-78): > 100 µM (inactive); GI50 (HOP-18): > 100 µM (inactive); GI50 (LXFL 529): 86.3 µM (inactive); GI50 (KM-20L2): > 100 µM (inactive); GI50 (XF498): > 100 µM (inactive)
